Data set [1] has as its target T1, Myosin-IIIb (Homo sapiens) (UniProt Q8WXR4).
T1 sequence (whole entry): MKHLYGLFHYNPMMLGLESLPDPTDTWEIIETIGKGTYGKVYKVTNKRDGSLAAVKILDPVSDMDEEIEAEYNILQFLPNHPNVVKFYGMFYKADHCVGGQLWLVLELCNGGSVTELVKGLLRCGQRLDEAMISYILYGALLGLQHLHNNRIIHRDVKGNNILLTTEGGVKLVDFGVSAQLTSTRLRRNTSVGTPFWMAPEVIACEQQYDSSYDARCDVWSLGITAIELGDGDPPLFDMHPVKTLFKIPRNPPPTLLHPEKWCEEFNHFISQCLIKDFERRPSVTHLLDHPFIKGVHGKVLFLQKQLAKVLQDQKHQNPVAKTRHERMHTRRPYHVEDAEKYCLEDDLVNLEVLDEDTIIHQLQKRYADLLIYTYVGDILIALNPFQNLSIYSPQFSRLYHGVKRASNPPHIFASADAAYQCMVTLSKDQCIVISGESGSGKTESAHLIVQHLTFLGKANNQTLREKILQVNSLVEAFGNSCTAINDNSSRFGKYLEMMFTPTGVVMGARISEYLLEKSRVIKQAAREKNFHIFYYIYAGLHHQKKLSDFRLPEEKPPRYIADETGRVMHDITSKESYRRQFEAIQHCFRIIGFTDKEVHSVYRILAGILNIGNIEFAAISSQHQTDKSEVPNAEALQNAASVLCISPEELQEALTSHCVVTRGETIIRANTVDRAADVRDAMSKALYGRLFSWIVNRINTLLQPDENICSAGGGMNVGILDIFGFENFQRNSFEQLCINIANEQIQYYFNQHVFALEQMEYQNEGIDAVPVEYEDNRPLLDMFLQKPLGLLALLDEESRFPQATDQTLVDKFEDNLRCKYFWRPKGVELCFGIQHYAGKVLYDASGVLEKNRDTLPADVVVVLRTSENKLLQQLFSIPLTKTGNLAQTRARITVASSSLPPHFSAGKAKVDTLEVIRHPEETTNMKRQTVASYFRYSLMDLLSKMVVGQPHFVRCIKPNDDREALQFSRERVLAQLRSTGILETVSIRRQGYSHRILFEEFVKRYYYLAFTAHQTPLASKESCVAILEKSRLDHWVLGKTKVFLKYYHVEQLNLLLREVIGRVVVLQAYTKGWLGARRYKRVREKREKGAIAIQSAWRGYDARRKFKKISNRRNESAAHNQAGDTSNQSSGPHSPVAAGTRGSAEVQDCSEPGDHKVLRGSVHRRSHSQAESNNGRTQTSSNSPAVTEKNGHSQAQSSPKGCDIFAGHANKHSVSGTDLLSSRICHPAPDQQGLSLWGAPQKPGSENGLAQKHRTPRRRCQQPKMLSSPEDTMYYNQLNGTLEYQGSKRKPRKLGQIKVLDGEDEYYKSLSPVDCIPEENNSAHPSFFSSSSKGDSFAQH
The data set is described as follows: Inhibition of human MYO3B at 2 uM by competition binding assay relative to control. The settings on record: values are per cent of control.

In data set [2] the target is T2, Cyclin-C/Cyclin-dependent kinase 19 (Homo sapiens) (UniProt Q9BWU1+P24863). Description: Binding affinity to recombinant human CDK19/cyclinC assessed as rate constant (kon) by TR FRET based assay. It counts as protein-complex assay. On the technique in general: TR-FRET usually uses a lanthanide donor and a delayed reading to cut background.
Data set [3] has as its target T3, CDK8/Cyclin C (Homo sapiens) (UniProt P49336+P24863). Description: Binding affinity to kinase tracer 236 binding to His tagged recombinant human CDK8/cyclinC assessed as rate constant (koff) by TR FRET based assay. It is filed as protein-complex assay.
Data set [4] has as its target T2, Cyclin-C/Cyclin-dependent kinase 19 (Homo sapiens). Description: Binding affinity to recombinant human CDK19/cyclinC assessed as rate constant (koff) by TR FRET based assay. It counts as protein-complex assay.
In data set [5] the target is T3, CDK8/Cyclin C (Homo sapiens). Description: Binding affinity to kinase tracer 236 binding to His tagged recombinant human CDK8/cyclinC assessed as half life by TR FRET based assay. It is filed as protein-complex assay.
The target of data set [6] is T2, Cyclin-C/Cyclin-dependent kinase 19 (Homo sapiens). The data set is described as follows: Binding affinity to recombinant human CDK19/cyclinC assessed as half life by TR FRET based assay. It counts as protein-complex assay.
Data set [7] in a line: Downregulation of CDK8/19 in HEK293 cells assessed as mRNA expression level in MYC gene at 1 uM for 3 hrs pretreatment and measured after 24 hr post wash-off by qt-PCR analysis. It is filed as functional. As to conditions: Homo sapiens, time 27 hrs.
A short description of data set [8]: Elimination rate constant in tumor of BALB/c mouse xenografted with mouse CT26 cells at 2.5 mg/kg, iv by LC-MS/MS analysis. It is filed as ADME, organism-based, Neoplasm.
The nature of data set [9]: Half life in tumor of BALB/c mouse xenografted with mouse CT26 cells at 2.5 mg/kg, iv by LC-MS/MS analysis. It is filed as ADME, organism-based, Neoplasm.
A short description of data set [10]: Tmax in tumor of BALB/c mouse xenografted with mouse CT26 cells at 2.5 mg/kg, iv by LC-MS/MS analysis. It is filed as ADME, organism-based, Neoplasm.
A short description of data set [11]: AUC (0-24hrs) in tumor of BALB/c mouse xenografted with mouse CT26 cells at 2.5 mg/kg, iv by LC-MS/MS analysis. It is filed as ADME, organism-based, Neoplasm. Set-up: time < 24 hr, route intravenous, dose 2.5 mg/kg.
A short description of data set [12]: Elimination rate constant in plasma of BALB/c mouse xenografted with mouse CT26 cells at 100 mg/kg, po by LC-MS/MS analysis. It is filed as ADME, organism-based.
Data set [13] can be described thus: Tmax in plasma of BALB/c mouse xenografted with mouse CT26 cells at 100 mg/kg, po by LC-MS/MS analysis. It counts as ADME, organism-based.
A short description of data set [14]: AUC(0-24h) in plasma of BALB/c mouse xenografted with mouse CT26 cells at 100 mg/kg, po by LC-MS/MS analysis. It is filed as ADME, organism-based. The settings on record: in vivo. Set-up: time < 24 hr, route oral, dose 100 mg/kg.
Another data set relates to CT26. The data set is described as follows: Downregulation of CCL12 gene expression in BALB/c mouse xenografted with mouse CT26 cells at 100 mg/kg, po 2 to 12 hrs […]. It counts as functional, organism-based. As to conditions: time 2-12 hrs, TDE = time-dependent effect.
The nature of data set [15]: Toxicity in BALB/c mouse bearing CT26 tumor model assessed as change in body weight at 100 mg/kg, po qd for 7 days by LC-MS/MS analysis. It counts as organism-based. The settings on record: in vivo, 168 h, time 7 day.
The nature of data set [16]: Drug accumulation in lung of BALB/c mouse bearing CT26 tumor model at 100 mg/kg, po for 7 days by LC-MS/MS analysis. It counts as ADME, organism-based. The settings on record: in vivo, 168 h, time 7 day.
The nature of data set [17]: Drug accumulation in liver of BALB/c mouse bearing CT26 tumor model at 100 mg/kg, po for 7 days by LC-MS/MS analysis. It counts as ADME, organism-based. As to conditions: in vivo, 168 h, time 7 day.
The nature of data set [18]: AUC (0-24hrs) in plasma of BALB/c mouse xenografted with mouse CT26 cells at 2.5 mg/kg, iv by LC-MS/MS analysis. The settings on record: in vivo. It is filed as ADME, organism-based. Set-up: time < 24 hr, route intravenous, dose 2.5 mg/kg.
A short description of data set [19]: Elimination rate constant in tumor of BALB/c mouse xenografted with mouse CT26 cells at 100 mg/kg, po by LC-MS/MS analysis. It is filed as ADME, organism-based, Neoplasm.
The nature of data set [20]: Tmax in tumor of BALB/c mouse xenografted with mouse CT26 cells at 100 mg/kg, po by LC-MS/MS analysis. It is filed as ADME, organism-based, Neoplasm.
The target in data set [21] is Cyclin-dependent kinase 8 (Homo sapiens) (UniProt P49336). Description: Inhibition of human CDK8 at 2 uM by competition binding assay relative to control; values are per cent of control.
Cyclin-dependent kinase 8 (Homo sapiens), sequence (P49336 whole entry): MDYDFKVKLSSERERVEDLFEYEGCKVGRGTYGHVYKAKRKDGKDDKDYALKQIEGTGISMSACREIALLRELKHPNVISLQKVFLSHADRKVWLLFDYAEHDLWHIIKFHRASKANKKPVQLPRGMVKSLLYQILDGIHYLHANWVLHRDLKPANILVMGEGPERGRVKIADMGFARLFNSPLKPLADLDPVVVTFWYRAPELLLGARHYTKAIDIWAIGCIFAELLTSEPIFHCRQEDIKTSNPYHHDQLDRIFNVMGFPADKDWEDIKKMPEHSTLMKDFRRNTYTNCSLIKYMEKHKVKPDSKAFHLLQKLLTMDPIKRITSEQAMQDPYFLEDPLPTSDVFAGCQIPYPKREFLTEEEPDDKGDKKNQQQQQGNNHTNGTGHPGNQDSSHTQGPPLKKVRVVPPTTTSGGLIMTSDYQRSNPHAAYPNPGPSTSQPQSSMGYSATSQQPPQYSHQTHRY

As for `CN1CCN(C(=O)c2ccc3cc(CCNc4ccnc5ccc(C#N)cc45)ccc3c2)CC1`, the residual binding, % of control in data set [1] was found to be 31%. Further, the K is 9.39 10^6/M/s in data set [2], 0.00122 s⁻¹ in data set [3] and 0.00272 s⁻¹ in data set [4]. Also, the results for the T1/2 in data set [5] and in [6] were 9.45 min and 4.25 min, respectively. The inhibition at 1 µM in data set [7] worked out at 30%. For the same compound, the results for the k el in data set [8], in data set [12] and in [19] were 1.67e-05 s⁻¹, 5.56e-05 s⁻¹ and 2.78e-05 s⁻¹, respectively. Also, the half-life in data set [9] is 12.1 h. The Tmax in data set [10] is 0.58 h; in data set [13], 12 h; in data set [20], 12 h. In addition, the AUC(0-t) at 24 h in data set [11] was determined as 6410 ng·h/mL. For the same compound, the results for the AUC in data set [14] and in [18] were 2182 ng·h/mL and 331 ng·h/mL, respectively. The Activity result was “Tde” in the data set with CT26 and “Non-Toxic” in [15]. Also, the Drug uptake entry in [16] and in [17] was “Active” throughout. The residual activity in data set [21] came to 1%.

A word on the inhibition: it is the relative decrease from the control value, in per cent. By half-life is commonly meant the time needed for the level to fall by half in the phase considered. Lower therefore signals rapid decline. As usually defined, the Tmax is the time from dosing to the highest level. In general, AUC(0-t) refers to exposure summed from dosing to a finite time, without extrapolation to infinity. A high value points to high exposure. The term AUC denotes concentration integrated over time. A low value points to less exposure. By residual activity is commonly meant the activity still measured, relative to the control. The low end stands for a large loss of activity, the high end for a small loss of activity.

Source of the values: ChEMBL document CHEMBL5046270, “A Selective and Orally Bioavailable Quinoline-6-Carbonitrile-Based Inhibitor of CDK8/19 Mediator Kinase with Tumor-Enriched Pharmacokinetics” (J Med Chem, 2022).
